From ChEMBL document CHEMBL1777705, “Naphthol derivatives as TRPV1 inhibitors for the treatment of urinary incontinence” (Bioorg Med Chem Lett, 2011)
Converted amounts (≈) assume the structure as drawn.

What was measured:
[1] = target: Transient receptor potential cation channel subfamily V member 1 (Homo sapiens, UniProt Q8NER1); assay: Antagonist activity at human TRPV1 expressed in CHO cells co-expressing aequorin and CRE-luciferase reporter gene assessed as inhibition of capsaicin-induced calcium flux; format: functional, cell-based
[2] = target: Transient receptor potential cation channel subfamily V member 1 (Rattus norvegicus, UniProt O35433); assay: Antagonist activity at rat TRPV1 expressed in CHO cells co-expressing aequorin and CRE-luciferase reporter gene assessed as inhibition of capsaicin-induced calcium flux; format: functional, cell-based
[3] = tested on: Rattus norvegicus; assay: Dose normalized AUC in po dosed rat; format: ADME, organism-based; conditions: in vivo
[4] = tested on: Rattus norvegicus; assay: Inhibition of capsaicin-induced micturition frequency in Sprague-Dawley rat overactive bladder model at 10 mg/kg, iv relative to control; format: functional
[5] = tested on: Rattus norvegicus; assay: Inhibition of cyclophosphamide-induced voiding frequency in iv dosed Sprague-Dawley rat cystitis model; format: functional, organism-based
[6] = tested on: Rattus norvegicus; assay: Inhibition of cyclophosphamide-induced bladder capacity in iv dosed Sprague-Dawley rat cystitis model; format: functional, organism-based
[7] = Oral bioavailability in Sprague-Dawley rat; format: ADME, organism-based; conditions: in vivo
[8] = Solubility of the compound; format: physicochemical
[9] = tested on: Rattus norvegicus; assay: Inhibition of capsaicin-induced micturition frequency in Sprague-Dawley rat overactive bladder model at 3 mg/kg, iv relative to control; format: functional

Transient receptor potential cation channel subfamily V member 1 (Rattus norvegicus, UniProt O35433), sequence (O35433 whole entry): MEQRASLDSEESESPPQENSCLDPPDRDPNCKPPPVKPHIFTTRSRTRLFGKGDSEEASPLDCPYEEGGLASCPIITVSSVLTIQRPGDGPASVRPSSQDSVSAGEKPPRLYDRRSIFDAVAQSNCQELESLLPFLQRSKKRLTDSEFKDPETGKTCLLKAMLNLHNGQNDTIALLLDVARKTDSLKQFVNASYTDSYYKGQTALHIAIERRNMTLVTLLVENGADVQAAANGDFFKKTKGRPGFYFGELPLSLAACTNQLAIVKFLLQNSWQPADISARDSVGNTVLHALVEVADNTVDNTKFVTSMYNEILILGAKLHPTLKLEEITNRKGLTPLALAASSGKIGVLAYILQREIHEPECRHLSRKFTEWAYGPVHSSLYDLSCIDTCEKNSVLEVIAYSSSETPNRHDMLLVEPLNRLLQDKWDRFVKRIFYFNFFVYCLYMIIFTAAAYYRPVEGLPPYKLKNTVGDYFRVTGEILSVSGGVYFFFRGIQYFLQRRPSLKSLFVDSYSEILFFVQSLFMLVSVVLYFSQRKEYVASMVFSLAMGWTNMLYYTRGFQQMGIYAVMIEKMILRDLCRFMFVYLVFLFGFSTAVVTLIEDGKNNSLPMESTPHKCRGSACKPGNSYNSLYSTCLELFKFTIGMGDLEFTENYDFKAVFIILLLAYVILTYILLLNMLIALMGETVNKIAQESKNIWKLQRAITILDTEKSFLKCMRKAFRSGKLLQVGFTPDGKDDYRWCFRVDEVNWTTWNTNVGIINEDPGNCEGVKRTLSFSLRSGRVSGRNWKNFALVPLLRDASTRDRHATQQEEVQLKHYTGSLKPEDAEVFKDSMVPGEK
Transient receptor potential cation channel subfamily V member 1 (Homo sapiens, UniProt Q8NER1), sequence (Q8NER1 whole entry): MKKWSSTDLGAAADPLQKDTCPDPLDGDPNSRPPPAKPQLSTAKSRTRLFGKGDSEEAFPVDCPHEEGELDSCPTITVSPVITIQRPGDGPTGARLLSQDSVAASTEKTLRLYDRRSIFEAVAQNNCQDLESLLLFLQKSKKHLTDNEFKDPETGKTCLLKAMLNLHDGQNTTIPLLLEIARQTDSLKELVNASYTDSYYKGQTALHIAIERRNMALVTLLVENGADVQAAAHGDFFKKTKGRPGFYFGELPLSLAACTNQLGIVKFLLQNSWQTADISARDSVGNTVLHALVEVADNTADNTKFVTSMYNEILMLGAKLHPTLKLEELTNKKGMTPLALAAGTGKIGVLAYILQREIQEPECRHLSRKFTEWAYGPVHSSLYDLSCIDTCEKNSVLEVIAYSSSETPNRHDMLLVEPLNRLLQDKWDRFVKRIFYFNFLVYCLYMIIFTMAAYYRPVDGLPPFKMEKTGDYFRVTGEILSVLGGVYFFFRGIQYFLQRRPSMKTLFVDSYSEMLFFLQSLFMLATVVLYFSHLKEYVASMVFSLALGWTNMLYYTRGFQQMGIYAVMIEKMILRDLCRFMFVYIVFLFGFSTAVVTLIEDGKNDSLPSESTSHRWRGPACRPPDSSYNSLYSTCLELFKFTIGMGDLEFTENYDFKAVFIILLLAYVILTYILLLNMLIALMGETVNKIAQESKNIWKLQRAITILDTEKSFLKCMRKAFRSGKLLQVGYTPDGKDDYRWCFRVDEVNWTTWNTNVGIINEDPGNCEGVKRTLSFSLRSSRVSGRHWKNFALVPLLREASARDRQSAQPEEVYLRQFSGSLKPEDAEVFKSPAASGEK

SMILES	IC50 [1] [nM]	IC50 [2] [nM]	also measured
O=C(Cc1cccc(F)c1)Nc1cccc2ccc(O)cc12	> 1000	–	–
O=C(Cc1cccc2ccc(O)cc12)Nc1ccc(Cl)c(C(F)(F)F)c1	34	–	–
COc1cccc(NC(=O)Nc2cccc3ccc(O)cc23)c1	8	8.6	–
CCOC(=O)c1cccc(NC(=O)Nc2cccc3ccc(O)cc23)c1	1.7	1.6	–
O=C(Nc1ccc(Cl)cc1Cl)Nc1cccc2ccc(O)cc12	12	16	–
O=C(Nc1ccccc1C(F)(F)F)Nc1cccc2ccc(O)cc12	87	64	–
O=C(Nc1cccc([N+](=O)[O-])c1)Nc1cccc2ccc(O)cc12	7.5	14	–
O=C(Nc1cccc(C(F)(F)F)c1)Nc1cccc2ccc(O)cc12	3.5	4.5	–
O=C(Nc1ccc(C(F)(F)F)cc1)Nc1cccc2ccc(O)cc12	5.4	4.9	–
O=C(Nc1cccc(C(=O)O)c1)Nc1cccc2ccc(O)cc12	520	270	–
O=C(Nc1ccc(Cl)c(C(F)(F)F)c1)Nc1c(Cl)c(Cl)cc2ccc(O)cc12	–	–	AUC [3]: 84 ng·h/mL; inhibition in vivo at 10 mg/kg [4]: 55%; inhibition [5]: Dose-dependent effect; inhibition [6]: Dose-dependent effect; bioavailability [7]: 3%; solubility [8]: 0.03 µg/mL (≈ 0.0667 µM)
COc1ccc2cccc(NC(=O)Nc3ccc(Cl)c(C(F)(F)F)c3)c2c1	–	–	AUC [3]: 114 ng·h/mL
CSc1cccc(NC(=O)Nc2cccc3ccc(O)cc23)c1	3.9	7.1	–
O=C(Nc1ccc(Cl)c(C(F)(F)F)c1)Nc1c(Br)c(Br)cc2ccc(O)cc12	–	–	AUC [3]: 596 ng·h/mL; inhibition in vivo at 3 mg/kg [9]: 11%; inhibition in vivo at 10 mg/kg [4]: 65%
O=C(Nc1ccc(Cl)c(C(F)(F)F)c1)Nc1c(Cl)c(Br)cc2ccc(O)cc12	–	–	AUC [3]: 477 ng·h/mL; inhibition in vivo at 3 mg/kg [9]: 88%
O=C(Nc1ccc(Cl)c(C(F)(F)F)c1)Nc1c(Cl)ccc2ccc(O)cc12	3.4	4.5	AUC [3]: 3 ng·h/mL
O=C(NCc1cccc(O)c1)Nc1cccc(F)c1	> 1000	> 1000	–
CC(=O)c1cccc(NC(=O)Nc2cccc3ccc(O)cc23)c1	28	39	–
